According to patent US20160002391A1, “POLYMERS, SUBSTRATES, METHODS FOR MAKING SUCH, AND DEVICES COMPRISING THE SAME” (AVERTICA, INC., priority 2013, published 2016):
Counter-ions that a name gives are not always drawn.

System: mushroom tyrosinase (phenyl oxidase)
Test: Substituted substrates for phenol oxidases: polymer formation with mushroom tyrosinase
Format: biochemical
Conditions: 5 mM potassium phosphate buffer, 200 Units tyrosinase, up to 3 hours
Protocol: 6-hydroxyindole, 6-hydroxyindole-3-carboxaldehyde, 1,2-dihydroxybenzene (catechol), 2,3-dihydroxybenzaldehyde, and 3,4-dihydroxybenezaldehyde were used as substrates for phenol oxidases.
6-hydroxyindole, 6-hydroxyindole-3-carboxaldehyde, 1,2-dihydroxybenzene (catechol), 2,3-dihydroxybenzaldehyde, and 3,4-dihydroxybenezaldehyde were dissolved in water at a concentration of 0.03 g/ml. Ten microliters of each was diluted into 90 microliter of 5 mM potassium phosphate buffer and 2 μl of mushroom tyrosinase (phenyl oxidase, 200 Units) was added. The reactions were allowed to proceed for up to 3 hours. […] Buffer alone with no substrates were used as controls and were negative for polymer formation.

Structure (SMILES) | Polymer formation with mushroom tyrosinase
Oc1ccccc1O [1,2-dihydroxybenzene (catechol), 1,2-dihydroxybenzene] | Polymers were formed
O=Cc1cccc(O)c1O [2,3-dihydroxybenzaldehyde] | Polymers were formed
O=Cc1ccc(O)c(O)c1 [3,4-dihydroxybenezaldehyde] | Polymers were formed
Oc1ccc2cc[nH]c2c1 [6 Hydroxyindole] | Polymers were formed
O=Cc1c[nH]c2cc(O)ccc12 [6-hydroxyindole-3-carboxaldehyde] | Polymers were formed

System: mushroom tyrosinase (polyphenol oxidase)
Test: Polymer production in enzymatic tyrosinase (polyphenol oxidase) reaction
Format: biochemical
Set-up: key: +++: Reacted within about 1 hour; ++: reacted within about 3 hours; +: reacted within about 24 hours; +/−: inconclusive results; −: no reaction
Conditions: approx. 50 mM potassium phosphate buffer pH 6.5, approx. 5 mM substrate, observed over 24 hour period
Protocol: All reactions were carried out in approximately 50 mM potassium phosphate buffer, pH 6.5 with approximately 5 mM substrate and mushroom tyrosinase (polyphenol oxidase) Sigma T3824 in an amount of 100 to 10,000 units. Reaction volumes varied from 200 μl to 2 ml. In cases where substrates were not completely solubilized, then a saturated solution was used as the limit of solubility. In some cases, a solution of DMSO was used to increase solubility of the substrates. […] The reactions were observed over a 24 hour period for the production of polymers, and the presence and color of polymer and solution was recorded.
The production of polymers in each reaction was visible as a precipitate in the well of a 96 well plate or in the reaction mixture on a glass slide.

Structure (SMILES) | Result (polymer production in tyrosinase reaction)
Oc1ccc2cc(O)ccc2c1 [2,6 dihydroxnaphthalene] | + (reacted within about 24 hours)
Oc1ccc2[nH]ccc2c1 [5-hydroxyindole] | +++ (Reacted within about 1 hour)
Oc1ccc2cc[nH]c2c1 [6 Hydroxyindole] | ++ (reacted within about 3 hours)
Cl.NCCc1ccccc1 [Beta phenylethylamine HCL] | +/−
c1ccc2[nH]ccc2c1 [Indole] | −
CN[C@@H](Cc1ccc(O)cc1)C(=O)O [N-methyl tyrosine] | ++ (reacted within about 3 hours)
Cl.NCCc1ccc(O)cc1 [Tyramine HCl] | +++ (Reacted within about 1 hour)
NCCc1ccc(O)cc1 [Tyramine] | +++ (Reacted within about 1 hour)
N[C@@H](Cc1ccc(O)cc1)C(=O)O [Tyrosine] | ++ (reacted within about 3 hours)

Same assay, conditions: as above; substrate (or marked component) dissolved in 20% DMSO

Structure (SMILES) | Result (polymer production in tyrosinase reaction)
Oc1ccc(-c2cc(-c3ccc(O)cc3)cc(-c3ccc(O)cc3)c2)cc1 [1,3,5 Tris(4hydroxyphenyl)benzene] | + (reacted within about 24 hours)
Oc1ccc2c(c1)[nH]c1ccccc12 [2 Hydroxy carbazole] | −
CC1=NCCc2c1[nH]c1cc(O)ccc21 [Harmalol HCl dehydrate] | −
